Earlier results in patent US11654154B2, “Process for preparing injectable Fosaprepitant Dimeglumine compositions having improved storage stability” (Navinta III Inc, priority 2019, dated 2023).
“Also recorded” adds a separate entry of the source.

Experiments:
[1] = for Solubility in water / aqueous solution (in words): water or aqueous solution
[2] = system: chemotherapy induced nausea and vomiting (CINV); conditions: added to standard regimen of ondansetron and dexamethasone; highly emetogenic cisplatin-based chemotherapy

Solubility in water ([1]; water) | SMILES | Solubility in water / aqueous solution (in words) [1] | Protection against CINV [2]
about 300 mg/mL | C[C@@H](O[C@H]1OCCN(Cc2nc(O)n(P(=O)(O)O)n2)[C@H]1c1ccc(F)cc1)c1cc(C(F)(F)F)cc(C(F)(F)F)c1 [Fosaprepitant] | good solubility | 
 | C[C@@H](O[C@H]1OCCN(Cc2n[nH]c(=O)[nH]2)[C@H]1c1ccc(F)cc1)c1cc(C(F)(F)F)cc(C(F)(F)F)c1 [Aprepitant] | limited solubility; also recorded: minimal solubility | consistently superior protection
